Measured values: PubChem BioAssay AID256 (DTP/NCI, 2004)
Several values for one entry are separate records, joined by “and”; a condition that tells them apart may be missing. Equal values may be shown once. Toxic doses and inconclusive results are not listed.

Test system: CD2F1 mice, L1210 leukemia ip, survival T/C
Experiment: NCI In Vivo Anticancer Drug Screen. Data for tumor model L1210 Leukemia (intraperitoneal) in CD2F1 (CDF1) mice
Conditions: endpoint: mean survival time, higher = longer survival
How it was run: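 Ratio T/C, where T is the treated-group value and C the vehicle-dosed control value, from mice implanted with a transplantable tumor.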

[1] = dose: 100.0 mg/kg/injection, schedule: Q04DX003 (ip), vehicle: saline with Tween-80
[2] = dose: 200.0 mg/kg/injection, schedule: Q04DX003 (ip), vehicle: saline with Tween-80
[3] = dose: 400.0 mg/kg/injection, schedule: Q04DX003 (ip), vehicle: saline with Tween-80
[4] = dose: 100.0 mg/kg/injection, schedule: Q01DX009 (ip), vehicle: saline with Tween-80
[5] = dose: 200.0 mg/kg/injection, schedule: Q01DX009 (ip), vehicle: saline with Tween-80
[6] = dose: 12.5 mg/kg/injection, schedule: Q01DX009 (ip), vehicle: saline with Tween-80
[7] = dose: 25.0 mg/kg/injection, schedule: Q01DX009 (ip), vehicle: saline with Tween-80
[8] = dose: 50.0 mg/kg/injection, schedule: Q01DX009 (ip), vehicle: saline with Tween-80

## C#CCOCCCC(=O)O
dose: 100.0 mg/kg/injection, schedule: Q04DX003 (ip), vehicle: acetone
  T/C: 101 % of control
dose: 200.0 mg/kg/injection, schedule: Q04DX003 (ip), vehicle: acetone
  T/C: 101 % of control
dose: 400.0 mg/kg/injection, schedule: Q04DX003 (ip), vehicle: acetone
  T/C: 95 % of control

## Cc1ccc(C(O)c2c(C)cc(C)cc2C)c(C)c1 (stereo not drawn)
[1]
  T/C: 94 % of control
[2]
  T/C: 89 % of control
[3]
  T/C: 88 % of control

## OC1CCCC2CCCCC12 (stereo not drawn)
[1]
  T/C: 100 % of control
[2]
  T/C: 109 % of control
[3]
  T/C: 94 % of control

## O=C(C[n+]1ccccc1)CC(O)(C(F)(F)F)C(F)(F)F
[4]
  T/C: 105 % of control
[5]
  T/C: 103 % of control

## CN(Cc1cnc2nc(N)nc(N)c2n1)c1ccc(C(=O)NC(CCC(=O)NC(CC(=O)O)C(=O)O)C(=O)O)cc1 (stereo not drawn)
dose: 5.0 mg/kg/injection, schedule: Q01DX009 (ip), vehicle: sodium bicarbonate
  T/C: 165 % of control
dose: 10.0 mg/kg/injection, schedule: Q01DX009 (ip), vehicle: sodium bicarbonate
  T/C: 151 % of control

## Cc1ccccc1[As](c1ccccc1C)c1ccccc1C
dose: 25.0 mg/kg/injection, schedule: Q01DX009 (ip), vehicle: saline
  T/C: 86 % of control
dose: 100.0 mg/kg/injection, schedule: Q01DX009 (ip), vehicle: saline
  T/C: 86 % of control

## OC1CC2CC2CC1O (stereo not drawn)
[1]
  T/C: 103 % of control
[2]
  T/C: 92 % of control
[3]
  T/C: 96 % of control

## OC(Cc1ccccn1)C(Cl)(Cl)Cl (stereo not drawn)
dose: 50.0 mg/kg/injection, schedule: Q04DX002 (ip), vehicle: saline
  T/C: 97 % of control
[4]
  T/C: 102 % of control
dose: 100.0 mg/kg/injection, schedule: Q04DX002 (ip), vehicle: saline
  T/C: 114 % of control
[1]
  T/C: 95 % of control
[5]
  T/C: 112 % of control
dose: 200.0 mg/kg/injection, schedule: Q04DX002 (ip), vehicle: saline
  T/C: 94 % of control
[2]
  T/C: 111 % of control
dose: 400.0 mg/kg/injection, schedule: Q01DX009 (ip), vehicle: saline with Tween-80
  T/C: 98 % of control
[3]
  T/C: 103 % of control

## C=CCOCC(O)CNCC(O)COCC=C (stereo not drawn)
[1]
  T/C: 100 % of control

## COC1=C(N2CC2)C(=O)C(OC)=C(N2CC2)C1=O
dose: 0.9 mg/kg/injection, schedule: Q01DX015 (ip), vehicle: saline
  T/C: 115 % of control
dose: 1.3 mg/kg/injection, schedule: Q01DX015 (ip), vehicle: saline
  T/C: 119 % of control
dose: 3.0 mg/kg/injection, schedule: Q01DX015 (ip), vehicle: saline
  T/C: 113 % of control

## NC(=S)N/N=C/c1cc(Cl)c2nc(-c3ccccc3)ccc2c1
[1]
  T/C: 104 % of control
[2]
  T/C: 102 % of control
[3]
  T/C: 104 % of control

## NC(=S)N/N=C\c1nccc2c(N)cccc12
[6]
  T/C: 124 % of control
[7]
  T/C: 124 % of control
[8]
  T/C: 161 % of control
dose: 75.0 mg/kg/injection, schedule: Q01DX009 (ip), vehicle: saline with Tween-80
  T/C: 121 % of control and 124 % of control

## CC(=O)OC(C)(C)/C=C/C(=O)[C@](C)(O)[C@H]1[C@H](O)C[C@@]2(C)[C@@H]3CC=C4[C@@H](CC[C@H](O)C4(C)C)[C@]3(CO)C(=O)C[C@]12C
dose: 0.6 mg/kg/injection, schedule: Q01DX009 (ip), vehicle: saline with Tween-80
  T/C: 105 % of control
dose: 0.63 mg/kg/injection, schedule: Q04DX003 (ip), vehicle: saline with Tween-80
  T/C: 105 % of control
dose: 1.2 mg/kg/injection, schedule: Q01DX009 (ip), vehicle: saline with Tween-80
  T/C: 105 % of control
dose: 1.25 mg/kg/injection, schedule: Q04DX003 (ip), vehicle: saline with Tween-80
  T/C: 112 % of control
dose: 2.4 mg/kg/injection, schedule: Q01DX009 (ip), vehicle: saline with Tween-80
  T/C: 107 % of control
dose: 2.5 mg/kg/injection, schedule: Q04DX003 (ip), vehicle: saline with Tween-80
  T/C: 114 % of control

## CC(=O)Nc1ccc(/C=N/NC(=O)CNC(=O)Nc2cccc([N+](=O)[O-])c2)cc1
[6]
  T/C: 87 % of control
[7]
  T/C: 91 % of control
[8]
  T/C: 91 % of control
[4]
  T/C: 88 % of control
